Results taken from patent US20250034216A1, “STEREOSELECTIVE COVALENT LIGANDS FOR ONCOGENIC AND IMMUNOLOGICAL PROTEINS” (The Scripps Research Institute, priority 2021, published 2025).

Tests used:
[1] = molecular target: T1, NSD2_C1018 (Homo sapiens, UniProt O96028); assay: IA-DTB cysteine engagement; format: binding; details: 22Rv1 cells, 20 μM probe, 1 h, relative to DMSO
T1 construct: endogenous in cells; host or cells: 22Rv1
T1 sequence (O96028 1-1365): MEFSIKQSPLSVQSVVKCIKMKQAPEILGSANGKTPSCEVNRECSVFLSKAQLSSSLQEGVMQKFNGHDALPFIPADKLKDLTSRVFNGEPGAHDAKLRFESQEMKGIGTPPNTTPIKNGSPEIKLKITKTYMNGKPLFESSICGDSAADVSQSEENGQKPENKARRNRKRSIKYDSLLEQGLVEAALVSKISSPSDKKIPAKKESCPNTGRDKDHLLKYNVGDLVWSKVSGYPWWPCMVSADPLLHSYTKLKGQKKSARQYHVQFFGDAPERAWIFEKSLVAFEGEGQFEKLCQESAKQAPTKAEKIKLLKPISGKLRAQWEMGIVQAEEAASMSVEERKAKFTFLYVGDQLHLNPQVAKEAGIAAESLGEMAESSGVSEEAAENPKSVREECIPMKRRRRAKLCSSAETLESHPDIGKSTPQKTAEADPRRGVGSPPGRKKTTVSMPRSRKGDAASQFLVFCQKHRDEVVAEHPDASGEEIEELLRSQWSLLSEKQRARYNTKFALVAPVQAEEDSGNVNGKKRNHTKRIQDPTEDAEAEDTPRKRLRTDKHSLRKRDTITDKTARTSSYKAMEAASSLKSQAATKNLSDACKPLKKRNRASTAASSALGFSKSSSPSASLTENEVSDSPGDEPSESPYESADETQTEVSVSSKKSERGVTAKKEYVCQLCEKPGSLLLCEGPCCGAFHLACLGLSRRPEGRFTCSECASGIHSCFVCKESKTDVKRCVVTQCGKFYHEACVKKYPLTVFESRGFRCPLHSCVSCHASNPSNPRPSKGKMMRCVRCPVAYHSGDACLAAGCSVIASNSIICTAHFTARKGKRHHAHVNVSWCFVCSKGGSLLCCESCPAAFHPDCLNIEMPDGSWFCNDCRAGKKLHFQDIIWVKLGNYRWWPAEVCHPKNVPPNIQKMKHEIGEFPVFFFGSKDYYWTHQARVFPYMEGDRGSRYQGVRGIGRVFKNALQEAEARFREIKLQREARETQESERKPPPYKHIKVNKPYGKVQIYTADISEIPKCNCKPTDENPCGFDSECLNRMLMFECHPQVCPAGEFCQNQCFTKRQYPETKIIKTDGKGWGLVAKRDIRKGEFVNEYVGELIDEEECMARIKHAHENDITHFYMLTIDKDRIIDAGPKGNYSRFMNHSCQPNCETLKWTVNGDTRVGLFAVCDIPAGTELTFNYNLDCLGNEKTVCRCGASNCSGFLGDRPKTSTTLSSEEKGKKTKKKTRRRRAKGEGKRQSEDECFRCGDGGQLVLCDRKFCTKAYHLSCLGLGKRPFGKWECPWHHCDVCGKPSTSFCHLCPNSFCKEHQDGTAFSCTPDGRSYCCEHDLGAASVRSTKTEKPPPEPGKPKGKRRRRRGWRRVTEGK
Procedure, shortened: (§1)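 Read-out is TMT-based cysteine engagement, expressed as each reporter ion intensity divided by the average of the DMSO channels. Before that, probe-treated cell lysates were capped with IA-DTB, digested, enriched on streptavidin and TMT-tagged. PSMs with DMSO summed intensity <10,000 or DMSO CV >0.5 were excluded.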

[2] = molecular target: T2, TRPM4_C758 (Homo sapiens, UniProt Q8TD43); assay: IA-DTB cysteine engagement; format: binding; details: 22Rv1 cells, 20 μM probe, 1 h, relative to DMSO
T2 construct: endogenous in cells; host or cells: 22Rv1
Procedure, shortened: as §1

T2 sequence (Q8TD43 whole entry): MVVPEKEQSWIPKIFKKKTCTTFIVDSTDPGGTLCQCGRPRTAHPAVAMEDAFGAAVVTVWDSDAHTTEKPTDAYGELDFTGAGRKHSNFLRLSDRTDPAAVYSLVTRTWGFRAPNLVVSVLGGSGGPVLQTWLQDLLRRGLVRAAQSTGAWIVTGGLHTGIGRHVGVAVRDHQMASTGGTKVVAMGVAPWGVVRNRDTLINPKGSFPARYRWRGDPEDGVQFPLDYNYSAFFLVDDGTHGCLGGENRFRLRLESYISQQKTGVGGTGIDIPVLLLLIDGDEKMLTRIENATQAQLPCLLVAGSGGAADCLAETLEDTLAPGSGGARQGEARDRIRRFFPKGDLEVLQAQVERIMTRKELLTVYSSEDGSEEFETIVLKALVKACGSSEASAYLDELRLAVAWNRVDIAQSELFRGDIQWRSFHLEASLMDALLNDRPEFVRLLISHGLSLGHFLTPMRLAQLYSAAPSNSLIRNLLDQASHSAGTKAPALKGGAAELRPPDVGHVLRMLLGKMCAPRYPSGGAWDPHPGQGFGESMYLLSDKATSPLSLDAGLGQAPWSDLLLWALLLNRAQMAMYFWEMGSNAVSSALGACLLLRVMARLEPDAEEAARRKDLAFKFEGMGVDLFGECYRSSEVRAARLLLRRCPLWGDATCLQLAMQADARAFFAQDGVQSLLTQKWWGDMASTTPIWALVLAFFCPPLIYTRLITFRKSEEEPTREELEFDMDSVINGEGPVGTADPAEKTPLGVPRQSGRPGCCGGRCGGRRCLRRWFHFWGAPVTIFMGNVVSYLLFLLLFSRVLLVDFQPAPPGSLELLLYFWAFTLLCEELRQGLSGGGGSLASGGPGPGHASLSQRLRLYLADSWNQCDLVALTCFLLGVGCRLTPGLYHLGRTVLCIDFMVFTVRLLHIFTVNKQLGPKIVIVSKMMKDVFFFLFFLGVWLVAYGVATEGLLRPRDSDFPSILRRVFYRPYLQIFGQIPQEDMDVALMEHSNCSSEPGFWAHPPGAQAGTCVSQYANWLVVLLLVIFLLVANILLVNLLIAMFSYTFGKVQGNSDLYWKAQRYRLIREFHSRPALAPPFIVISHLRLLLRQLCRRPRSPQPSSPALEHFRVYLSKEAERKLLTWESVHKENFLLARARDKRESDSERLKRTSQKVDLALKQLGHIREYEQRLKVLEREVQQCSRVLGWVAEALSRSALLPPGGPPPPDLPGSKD

| % engagement NSD2_C1018 [1] [%] | Structure (SMILES) | % engagement TRPM4_C758 [2] [%] |
| --- | --- | --- |
| 16.5 | C=CC(=O)N1C[C@@H](c2ccc(Br)cc2)[C@H]1C(=O)Nc1cccc2cccnc12 [MY-1A, (2S,3R)-1-acryloyl-3-(4-bromophenyl)-N-(quinolin-8-yl)azetidine-2-carboxamide] | 40.5 |
| 43.75 | C=CC(=O)N1C[C@H](c2ccc(Br)cc2)[C@@H]1C(=O)Nc1cccc2cccnc12 [MY-1B, (2R,3S)-1-acryloyl-3-(4-bromophenyl)-N-(quinolin-8-yl)azetidine-2-carboxamide] | 54.5 |
| 67 | C=CC(=O)N1C[C@H](c2ccc(Br)cc2)[C@H]1C(=O)Nc1cccc2cccnc12 [MY-3B, (2S,3S)-1-acryloyl-3-(4-bromophenyl)-N-(quinolin-8-yl)azetidine-2-carboxamide] | 73.5 |
| 36.75 | C=CC(=O)N1C[C@H](c2ccc(Br)cc2)[C@H]1C(=O)Nc1cccc2cccnc12 [MY-3A, (2S,3S)-1-acryloyl-3-(4-bromophenyl)-N-(quinolin-8-yl)azetidine-2-carboxamide] | 29.5 |
